Experimental data from patent US8946439B2, “Amide compounds, compositions and uses thereof” (Evotec AG, priority 2008, dated 2015).
Where two headings read alike, the source gives them in different places.

Key:
[1] = target: T1, hP2X2/3H (Homo sapiens, UniProt P56373+Q9UBL9); experiment: Calcium uptake assay (P2X antagonist assay), P2X2/3 heteromer; type: cell-based; settings: hP2X2/3H
T1 construct: expressed in transfected cells; host or cells: e.g. HEK293 or 1321N1
T1 sequence (Q9UBL9 1-471): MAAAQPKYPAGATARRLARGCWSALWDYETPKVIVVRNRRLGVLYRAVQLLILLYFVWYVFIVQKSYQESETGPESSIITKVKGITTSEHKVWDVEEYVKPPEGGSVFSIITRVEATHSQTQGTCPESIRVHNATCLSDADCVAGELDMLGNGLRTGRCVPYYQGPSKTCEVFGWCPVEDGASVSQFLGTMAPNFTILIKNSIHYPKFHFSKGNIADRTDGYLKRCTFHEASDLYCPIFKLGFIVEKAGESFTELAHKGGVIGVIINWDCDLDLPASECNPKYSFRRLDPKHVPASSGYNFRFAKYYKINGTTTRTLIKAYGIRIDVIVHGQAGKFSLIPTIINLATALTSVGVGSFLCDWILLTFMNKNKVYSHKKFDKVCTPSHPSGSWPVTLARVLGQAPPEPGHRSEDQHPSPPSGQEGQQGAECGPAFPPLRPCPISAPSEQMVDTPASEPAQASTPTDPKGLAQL
T1 sequence (P56373 1-397): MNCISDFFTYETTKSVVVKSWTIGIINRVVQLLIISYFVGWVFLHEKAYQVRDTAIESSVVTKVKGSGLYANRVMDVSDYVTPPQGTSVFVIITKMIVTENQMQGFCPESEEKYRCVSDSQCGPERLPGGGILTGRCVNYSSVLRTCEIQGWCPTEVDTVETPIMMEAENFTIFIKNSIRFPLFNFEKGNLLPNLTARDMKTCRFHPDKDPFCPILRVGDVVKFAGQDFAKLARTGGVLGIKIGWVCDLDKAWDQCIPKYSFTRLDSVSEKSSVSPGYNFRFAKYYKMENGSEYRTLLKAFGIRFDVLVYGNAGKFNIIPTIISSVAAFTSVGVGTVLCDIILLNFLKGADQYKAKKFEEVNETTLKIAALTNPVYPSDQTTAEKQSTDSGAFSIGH
Procedure, shortened: (§1)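 Stably or transiently transfected HEK293 or 1321N1 cells; the heteromer is made by adding P2X3 to a P2X2-stable line, with heteromer function isolated pharmacologically. The peak-minus-baseline FLIPR calcium signal gives % inhibition and a 4-parameter-logistic IC50.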

[2] = target: T2, hP2X3 (Homo sapiens, UniProt P56373); experiment: Calcium uptake assay (P2X antagonist assay), P2X3 homomer; type: cell-based; settings: hP2X3
T2 construct: expressed in transfected cells; host or cells: e.g. HEK293 or 1321N1
T2 sequence (P56373 1-397): T1 sequence (P56373 1-397)
Procedure, shortened: as §1

[3] = Ca influx (calcium uptake assay), read-out: IC50 hP2X2/3H
[4] = Ca influx (calcium uptake assay), read-out: IC50 hP2X3
[5] = calcium uptake assay, read-out: IC50 hP2X2/3H (nM), Ca Influx
[6] = calcium uptake assay, read-out: IC50 hP2X3 (nM), Ca Influx

Row | Structure (SMILES) | IC50 [1, 3] [nM] | IC50 [2, 4] [nM] | IC50 [1, 5] [nM] | IC50 [2, 6] [nM]
1 | COc1cc(C(=O)N[C@H](C)c2cnc(C)nc2)cc(-c2ccc(C)cn2)c1 [Compound 225, (R)-3-Methoxy-5-(5-methylpyridin-2-yl)-N-(1-(2-methylpyrimidin-5-yl)ethyl)benzamide] | 100 to 500 | < 100 | – | –
2 | Cc1ccc(-c2cc(C(=O)NCc3ccc(C)nc3)cc(C(=O)N3CC[C@H](O)C3)c2)cc1 [Compound 95, (S)-5-(3-Hydroxypyrrolidine-1-carbonyl)-4′-methyl-N-((6-methylpyridin-3-yl)methyl)biphenyl-3-carboxamide] | – | – | 100 to 500 | < 100
3 | Cc1ccc(-c2cc(C(=O)NCc3ccc(C)nc3)cc(C(=O)N3CCc4ccccc43)c2)cc1 [Compound 186] | – | – | < 100 | 100 to 500
4 | Cc1ccc(-c2cc(C(=O)N[C@H](CO)c3ccc(C(F)F)nc3)cc(C(=O)N3CCCC3)c2)cc1 [Compound 89] | – | – | < 100 | < 100
5 | Cc1ccc(-c2cc(C(=O)N[C@H](C)c3ccc(C)nc3)cc(S(=O)(=O)CC(C)C)c2)cc1 [Compound 196] | – | – | < 100 | 100 to 500
6 | Cc1ccc(-c2cc(C(=O)NCc3ccc(C)nc3)cc(C(=O)N3CCN(c4nccs4)CC3)c2)cc1 [Compound 127, 4′-Methyl-N-((6-methylpyridin-3-yl)methyl)-5-(4-(thiazol-2-yl)piperazine-1-carbonyl)biphenyl-3-carboxamide] | – | – | 100 to 500 | < 100
7 | Cc1ccc(-c2cc(C(=O)NCc3ccc(C)nc3)cc(C(=O)N3CCOc4ccccc43)c2)cc1 [Compound 190] | – | – | < 100 | 100 to 500
8 | Cc1ccc(-c2cc(C(=O)N[C@H](C)c3cnc(C)nc3)cc(C(O)c3ccccn3)c2)nc1 (stereo partly drawn) [Compound 286] | < 100 | < 100 | – | –
9 | Cc1ccc(-c2cc(C(=O)NCc3cnc(C)nc3)cc(S(C)(=O)=O)c2)cc1 [Compound 22, 4′-Methyl-N-((2-methylpyrimidin-5-yl)methyl)-5-(methylsulfonyl)biphenyl-3-carboxamide] | – | – | 100 to 500 | < 100
10 | Cc1ccc(-c2cc(C#N)cc(C(=O)NCc3cnc(C)nc3)c2)cc1 [Compound 154] | – | – | 100 to 500 | 100 to 500
11 | Cc1ccc(-c2cc(C(=O)N[C@H](C)c3cnn4c3COCC4)cc(C(=O)N3CCCC3)c2)cc1 [Compound 110] | – | – | > 1000 | 100 to 500
12 | Cc1ccc(-c2cc(CO)cc(C(=O)NCc3cnc(C)nc3)c2)c(C#N)c1 [Compound 304] | 100 to 500 | < 100 | – | –
13 | COCC(C)Oc1cc(C(=O)N[C@H](C)c2ccc(C)nc2)cc(-c2ccc(C)cn2)c1 (stereo partly drawn) [Compound 328] | < 100 | < 100 | – | –
14 | Cc1ccc(-c2cc(C(=O)N[C@H](C)c3ccc(C)nc3)cc(C(O)c3nccs3)c2)cc1 (stereo partly drawn) [Compound 280, 5-(Hydroxy(thiazol-2-yl)methyl)-4′-methyl-N—((R)-1-(6-methylpyridin-3-yl)ethyl)biphenyl-3-carboxamide] | < 100 | < 100 | – | –
15 | Cc1ccc(-c2cc(C(=O)N[C@H](C)c3cnc(C)nc3)cc(S(=O)(=O)CC(C)C)c2)cc1 [Compound 194] | – | – | < 100 | < 100
16 | Cc1ccc(-c2cc(Oc3nc(Cl)cs3)cc(C(=O)N[C@H](C)c3ccc(C)nc3)c2)c(C#N)c1 [Compound 395] | < 100 | < 100 | – | –
17 | Cc1ccc(-c2cc(C(=O)N[C@H](C)c3cnn(C)c3C(F)(F)F)cc(C(=O)N3CCCC3)c2)cc1 [Compound 107] | – | – | 501 to 1000 | 100 to 500
18 | Cc1ccc(-c2cc(C(=O)NCc3ccc(C)nc3)cc(C(=O)N3CC[C@@H](NC(=O)OC(C)(C)C)C3)c2)cc1 [Compound 100] | – | – | 100 to 500 | 501 to 1000

Row | Structure (SMILES) | IC50 [1, 3] [nM] | IC50 [2, 4] [nM] | IC50 [1, 5] [nM] | IC50 [2, 6] [nM]
19 | Cc1ccc(-c2cc(C(=O)NCc3ccc(C)nc3)cc(C(O)c3ccccn3)c2)cc1 (stereo not drawn) [Compound 240, 5-(Hydroxy(pyridin-2-yl)methyl)-4′-methyl-N-((6-methylpyridin-3-yl)methyl)biphenyl-3-carboxamide] | < 100 | < 100 | – | –
20 | Cc1ccc(-c2cc(C(=O)NCc3ccc(C)nc3)cc(C(=O)N(C)C)c2)cc1 [Compound 166, N3,N3,4′-Trimethyl-N5-((6-methylpyridin-3-yl)methyl)biphenyl-3,5-dicarboxamide] | – | – | 100 to 500 | < 100
21 | Cc1ccc(-c2cc(C(=O)NCc3ccc(C)nc3)cc(C(F)(F)F)c2)nc1 [Compound 202] | > 1000 | 100 to 500 | – | –
22 | Cc1ccc(-c2cc(C(=O)NCc3ccc4ocnc4c3)cc(C(=O)N3CCCC3)c2)cc1 [Compound 90] | – | – | < 100 | < 100
23 | Cc1ccc(-c2cc(C(=O)NCc3ncc(C(F)(F)F)cc3Cl)cc(C(=O)N3CC(O)C3)c2)cc1 [Compound 129] | – | – | < 100 | < 100
24 | Cc1ccc(-c2cc(C(=O)N[C@H](C)c3ccc(C)nc3)cc(C(=O)N3CCN4CCCC4C3)c2)cc1 (stereo partly drawn) [Compound 192] | – | – | < 100 | < 100
25 | CCOC(=O)c1cc(C(=O)N[C@@H](C)CO)cc(-c2ccc(C)cc2)c1 [Compound 6, (S)-Ethyl 5-(1-hydroxypropan-2-ylcarbamoyl)-4′-methylbiphenyl-3-carboxylate] | – | – | 501 to 1000 | 100 to 500
26 | Cc1ccc(-c2cc(C(=O)NCc3ccc(C)nc3)cc(C(=O)N3CC[C@@H](N(C)C)C3)c2)cc1 [Compound 143] | – | – | 501 to 1000 | 100 to 500
27 | Cc1ccc(-c2cc(C(=O)N[C@H](C)c3cnc(C)nc3)cc(C(O)c3cncn3C)c2)cc1 (stereo partly drawn) [Compound 354] | < 100 | < 100 | – | –
28 | Cc1ccc(-c2cc(C(=O)N[C@@H](C)CO)cc(S(=O)(=O)C(C)C)c2)cc1 [Compound 288] | > 1000 | < 100 | – | –
29 | Cc1ccc(-c2cc(C(=O)N[C@H](C)c3ccc(C(F)(F)F)nc3)cc(C(=O)N3CC[C@@H](O)C3)c2)cc1 [Compound 158] | – | – | < 100 | < 100
30 | Cc1ccc(-c2cc(C(=O)N[C@H](C)c3ccc(C)nc3)cc(C(=O)N3CCCC3)c2)cc1 [Compound 176] | – | – | < 100 | < 100
31 | Cc1ncc(CNC(=O)c2cc(C(=O)N3CCCC3)cc(-c3ccc(F)cc3)c2)cn1 [Compound 38] | – | – | > 1000 | 100 to 500
32 | Cc1ccc(-c2cc(C(=O)NCc3ccc4cccnc4c3)cc(C(=O)N3CCCC3)c2)cc1 [Compound 49, 4′-Methyl-5-(pyrrolidine-1-carbonyl)-N-(quinolin-7-ylmethyl)biphenyl-3-carboxamide] | – | – | 100 to 500 | 100 to 500
33 | COCc1cc(C(=O)N[C@H](C)c2cnc(C)nc2)cc(-c2ccc(C)cn2)c1 [Compound 274, (R)-3-(Methoxymethyl)-5-(5-methylpyridin-2-yl)-N-(1-(2-methylpyrimidin-5-yl)ethyl)benzamide] | 100 to 500 | 100 to 500 | – | –
34 | Cc1ccc(-c2cc(C(=O)NCc3ccc(C)nc3)cc(S(=O)(=O)N3CCCC3)c2)c(C#N)c1 [Compound 148] | – | – | > 1000 | < 100
35 | Cc1ccc(-c2cc(C(=O)NCc3ccc(Cl)c(S(=O)(=O)NC4CC4)c3)cc(C(=O)N3CCCC3)c2)cc1 [Compound 73, N-(4-Chloro-3-(N-cyclopropylsulfamoyl)benzyl)-4′-methyl-5-(pyrrolidine-1-carbonyl)biphenyl-3-carboxamide] | – | – | 501 to 1000 | 100 to 500
36 | Cc1ccc(-c2cc(Oc3nccs3)cc(C(=O)NCc3ccc(C)nc3)c2)c(C#N)c1 [Compound 260] | 100 to 500 | < 100 | – | –
